Data on four molecules can be found in US20070071773A1, “Compositions and methods for the treatment and prophylaxis of infections caused by gram positive bacteria” (priority 2002, published 2007).

Experiment [1] has as its system trypsin-like GAS protease. Nature of the experiment: Degradation of IL-8 by JS95 supernatant (Western blot, ELISA). It is filed as biochemical, Group A Streptococcus (GAS). The conditions noted are these: for IL-8 degradation (ELISA): JS95 supernatant pretreated 30 min 37° C.: 0.3 μM aprotinin, 1 mM benzamidine, 100 μg/ml soybean trypsin inhibitor, FIG. 15A. How it is done: […] was grown in the absence and presence of SilCR (50 μg/ml). IL-8 was incubated with the indicated supernatant fractions and then subjected to 18% SDS-PAGE. The separated protein bands were electro-transferred to a nitrocellulose membrane. Anti-IL-8 antibody and a secondary antibody conjugated to horseradish peroxidase were used to detect IL-8. The number of the lane represents incubation of IL-8 with: 1, DMEM+FCS (control); 2, JS95 supernatant; 3, JS95 supernatant grown in the presence of SilCR; 4, JS95 supernatant, pretreated with pefabloc SC; 5, supernatant of JS95 grown in the absence of SilCR, then 50 μg/ml of SilCR was added to the degradation assay.
15A The column numbers represent the ELISA results after incubation of IL-8 with: 1, DMEM+FCS (control); and the supernatants of: 2, JS95; 3, JS95 grown in the presence of SilCR; 4, JS95 pretreated with aprotenin; 5, JS95 pretreated with soybean trypsin inhibitor; 6, JS95 pretreated with benzamidine. The background of the ELISA assay (0.08±0.004) was subtracted from the shown results. The data represent the mean ± SD, of three separate experiments.
(§1) A. Cell culture of JS95 strain was grown in THY to an OD600 of 0.2. To determine the effect of SilCR on chemokine proteolysis, the culture was split into two equal fractions, of which one received SilCR (25 μg/ml). Both fractions were further incubated until they reached an OD600 of 0.3. Bacteria were washed twice with sterile PBS and once with DMEM containing 10% FCS. The washed pellets were re-suspended in DMEM supplemented with FCS to their original volumes. SilCR (50 μg/ml) was added to the fraction that was grown in the presence of SilCR, and the two fractions were further incubated for 1 h at 37° C. Supernatants were collected after centrifugation. The proteolysis reaction contained: 0.08 ml of each supernatant, 100 ng of recombinant human IL-8/CXCL8 (R&D systems, Minneapolis, Minn.) or 30 ng of recombinant murine MIP-2 (R& D systems, Minneapolis, Minn.), 20 mM MOPS pH=7.2 in a final volume of 0.1 ml. The reaction was conducted for 1 h at 37° C., and stopped by boiling for 1 min.
(§2) B. For testing protease inhibitors, the supernatants were pre-incubated with the inhibitor for 30 min at 37° C., followed by the proteolysis reaction. The following concentrations of inhibitors were used: 4 mM pefabloc SC; 0.5 mM PMSF; 0.3 μM aprotinin; 1 mM benzamidine; 100 μg/ml soybean trypsin inhibitor (STI).
C. Proteolysis of chemokines was determined by ELISA and Dot-blot. IL-8 content was quantified by ELISA using the Quantikine kit for determination of human IL-8 (R&D Systems, Minneapolis, Minn.) according to the manufacturer's instructions.
A general note: In western blotting, separated proteins are transferred to a membrane and probed.

The test system of experiment [2] is trypsin-like GAS protease. Nature of the experiment: Degradation of MIP-2 by JS95 supernatant (dot blot). It is filed as biochemical, Group A Streptococcus (GAS). The note with it: pretreatment of JS95 supernatant: 4 mM pefabloc SC; 0.3 μM aprotinin; 1 mM benzamidine; 100 μg/ml STI. How it is done:
15B. The dots in the control panel represent MIP-2 that was incubated in DMEM+FCS, in the absence of JS95 supernatant and spotted at the following doses: 30, 15, 7.5, 3.75 and 1.87 ng (from left to right). The dots in the lower panel were generated in the same way, except that MIP-2 was previously incubated with JS95 supernatant.
as §1, §2
Samples of 50 μl from the proteolysis reaction were diluted in PBS to a final volume of 0.5 ml and passed through a 96-wells dot-blotter onto a 0.2-μm-nitrocellulose membrane. Detection of MIP-2 was performed using anti-mouse MIP-2 polyclonal antibodies (R&D Systems Minneapolis, Minn.) followed by addition of anti-mouse IgG-HRP antibody. Dots were detected using the SuperSignal West Pico chemiluminescent detection kit (Pierce, Rockford, Ill.).

For the molecule `N=C(N)c1ccccc1` [benzamidine], the “IL-8 degradation (ELISA)” value in experiment [1] is “completely abrogated”. Moreover, the MIP-2 degradation result in experiment [2] was “blocked”.

In the case of `Cl.NCCc1ccc(S(=O)(=O)F)cc1` [pefabloc SC], the “IL-8 degradation (Western blot)” value in experiment [1] (JS95 supernatant pretreated 30 min 37° C. with 4 mM pefabloc SC, FIG. 14) is “almost completely abolished”. The MIP-2 degradation result in experiment [2] is “blocked”.

As to aprotinin, the “IL-8 degradation (ELISA)” value in experiment [1] is recorded as “completely inhibited”. Moreover, the MIP-2 degradation result in experiment [2] was “blocked”.

For soybean trypsin inhibitor, the “IL-8 degradation (ELISA)” value in experiment [1] was “completely abrogated”. Also, in experiment [2], the MIP-2 degradation entry is “blocked”.
